Experimental data from patent US20060160906A1, “Polyamine analogs as therapeutic agents for ocular diseases” (priority 2004, published 2006).

System: retinal neovascularization
Test: Oxygen-induced ischemic retinopathy, retinal neovascularization
Type: in vivo, neonatal C57BL/6 mice
Settings: 100 μg CGC-11144, 1 mg CGC-11047, 750 μg CGC-11093
Experimental: Ischemic retinopathy can be produced in neonatal C57BL/6 mice as described (Smith, L. E et al., Invest. Opthalmol. Vis. Sci. 35: 101-111 (1994)) and serves as a model for retinopathy of prematurity (ROP). Post-natal day 7 (P7) mice and their mothers were placed in an airtight incubator and exposed to an atmosphere of 75±3% oxygen for 5 days. Incubator temperature was maintained at 23±2° C. and oxygen was continuously monitored with a PROOX model 110 oxygen controller (Reming Bioinstruments Co., Redfield, N.Y.). At post-natal day 12, mice were placed back in room air and were given a periocular injection of 3 μl containing 100 μg of CGC-11144 (n=4), 1 mg of CGC-11047 (n=4), 750 μg of CGC-11093 (n=4) or vehicle. On post-natal day 17 (P17) the treated and control mice were euthanized and the amount of retinal neovascularization was measured.
For measurement of retinal neovascularization, eyes were removed and fixed in 2% paraformaldehyde in phosphate buffered saline (PBS) for one hour and rinsed twice in 25% sucrose in PBS. Specimens were incubated in 25% sucrose in PBS overnight and embedded in OCT compound (Miles Diagnostics, Elkhart, Ind.),). 10 μm frozen sections were post-fixed for 15 minutes in 0.5% glutaraldehyde in PBS and washed in PBS. Sections were also histochemically stained with biotinylated Griffonia simplicifolia lectin B4 (GSA, Vector Laboratories, Burlingame, Calif.), which selectively binds to vascular cells. Slides were incubated in methanol/H2O2 for 10 minutes at 4° C., washed with 0.05 M Tris-buffered saline, pH 7.6 (TBS), and incubated for 30 minutes in 10% normal porcine serum. Slides were incubated 2 hours at room temperature with biotinylated GSA and after rinsing with 0.05M TBS, they were incubated with avidin coupled to peroxidase (Vector Laboratories, Burlingame, Calif.) for 30 minutes at room temperature. After being washed for 10 minutes with 0.05M TBS, slides were incubated with diaminobenzidine (Research Genetics, Huntsville, Ala.) to give a brown reaction product.
To perform quantitative assessments, 10 μm frozen serial sections were cut from the iris root on one side of the eye to the iris root on the opposite side of the eye and every tenth section was stained with GSA. Retinas were examined with an Axioskop microscope and images were digitized using a 3 CCD color video camera and a frame grabber. Image-Pro Plus software was used to delineate GSA-stained vascular cells above the internal limiting membrane and the total area of staining was measured.
To investigate the effect of these agents on regression of retinal neovascularization, ischemic retinopathy was induced and left untreated until P17, when the baseline amount of retinal neovascularization was measured in one group of mice. From post-natal days 17 to 20 (P17 to P20) the remainder of the mice were given daily periocular injections of 100 μg of CGC-11144 (n=4), 1 mg of CGC-11047 (n=4), 750 μg of CGC-11093 (n=4) or vehicle. On P20 the mice were euthanized and the amount of retinal neovascularization in the treated and control mice was measured as described above.

SMILES: CCNCCCCNCCCCNCCCCNCCCCNC/C=C/CNCCCCNCCCCNCCCCNCCCCNCC.Cl.Cl.Cl.Cl.Cl.Cl.Cl.Cl.Cl.Cl [CGC-11144]
- amount of retinal neovascularization at P20 vs vehicle (regression) (daily periocular injections P17 to P20): significantly less neovascularization
- amount of retinal neovascularization at P17 vs vehicle (suppression) (periocular injection at P12): significantly less
